Experimental data from patent publication US20250250227A1, “AMINO LIPID COMPOUND, PREPARATION METHOD THEREFOR, COMPOSITION THEREOF AND USE THEREOF” (SHENZHEN SHENXIN BIOTECHNOLOGY CO., LTD., priority 2022, published 2025).

Legend:
[1] = Preparation and characterisation of mRNA-encapsulating lipid nanoparticle (encapsulation efficiency, particle size); format: physicochemical; details: LNP encapsulating Fluc mRNA; Lipid:DSPC:CHO-HP:M-DMG-2000 48:10:40.5:1.5
Method in brief: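 Fluc mRNA in sodium acetate buffer mixed with ethanolic amino lipid:DSPC:CHO-HP:M-DMG-2000 (48:10:40.5:1.5 molar) by microfluidics, mRNA:lipid mass ratio 1:10, then dialysed 2 h against Tris-8% sucrose and 0.22 μm filtered. Final mRNA 0.2 g/L; particle size and encapsulation efficiency measured.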

[2] = tested on: Female BALB/c mice; test: Performance evaluation of in vivo delivery of Fluc mRNA lipid nanoparticle (IVIS, body and organs); details: Fluc mRNA LNP
Method in brief: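 Female BALB/c mice, 6-8 weeks, received 75 μL Fluc mRNA-LNP by tail-vein injection, 3 mice per formulation. At 6 h, 200 μL D-luciferin was injected, mice were anesthetized with isoflurane, and IVIS bioluminescence was imaged in body and organs.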

[3] = tested on: Female BALB/c mice; test: Performance evaluation of delivery to lymph nodes of Fluc mRNA lipid nanoparticle (IVIS); format: in vivo; details: Fluc mRNA LNP
Protocol: (§1) Animal preparation: Female BALB/c mice of 6-8 weeks old were selected and raised in an SPF grade breeding room. Animal testing was conducted in strict accordance with the guidelines of national health institutions and animal ethics requirements.
In vivo Delivery: prior to injection of the test LNP formulations, the LNP formulations were gently and repeatedly inverted to thoroughly mix the formulation samples. A corresponding amount of the formulation samples were aspirated with a 1 ml insulin syringe, and the LNP formulations were injected by tail vein injection (IV), with 3 mice per formulation. Each mouse was injected with 75 μL the luciferase mRNA (Fluc mRNA)-encapsulating lipid nanoparticle formulation prepared in Experimental Example 1.
6 hours after injection of LNP formulations, mice were injected with 200 μL D-Luciferin luciferase developing substrate (Catalog No. 122799; Manufacturer: Perkin Elmer). After the substrate was injected, the mice were anesthetized with isoflurane inhalation, and the injection time of luciferase developing substrate was recorded.
The intensity of fluorescence expression induced by the lipid nanoparticle encapsulating luciferase mRNA (Fluc mRNA) with a representative amino lipid compound is shown in Table 6, with SM-102 as a control.

[4] = tested on: Female BALB/c mice; test: IFN-γ Elispot cellular immunity test, spleen lymphocytes of mice immunized with IN002.5.1 mRNA LNP; format: in vivo; details: 50 μL IM, spleen on 7th day after immunization, FIG. 2-4
Protocol: An IN002.5.1 mRNA-encapsulating lipid nanoparticle formulation was prepared according to the method as described in Experimental Example 1, with replacing the luciferase mRNA (Fluc mRNA) with IN002.5.1 mRNA, with a concentration of IN002.5.1 mRNA of 0.2 g/L, a mass ratio of IN002.5.1 mRNA to Lipid of 1:10, a particle size of 80-130 nm, and an encapsulation efficiency of 90% or higher.
The sequence of IN002.5.1 mRNA is one obtained by replacing all uracil (u) in SEQ ID NO. 1 with N1-methylpseudouridine. Of note is that the t (thymine) in the RNA sequence, SEQ ID NO. 1, in the Sequence Listing is actually u (uracil), according to the WIPO Standard ST. 26 for nucleotide or amino acid sequence listing.
as §1
Immunization of mice: Prior to injection of the test LNP formulations, the LNP formulations were gently and repeatedly inverted to thoroughly mix the formulation samples. A corresponding amount of the formulation samples were aspirated with a 1 ml insulin syringe, and the LNP formulations were injected by intramuscular injection (IM) […], with 8 mice per formulation. Each mouse was injected with 50 μL of the IN002.5.1 mRNA encapsulating lipid nanoparticle formulation.
Spleen acquisition: On the 7th day after immunization, 3 to 4 mice from each LNP immunization group were selected and euthanized, and their spleens were acquired in a super clean bench.
Isolation of lymphocytes: The spleens of mice were taken out in a super clean bench. 7 mL of mouse lymphocyte separation solution was added to a 6-well cell culture plate. Mouse spleen cells were ground with a syringe piston, and the suspension of the spleen cells was filtered through a cell screen and immediately transferred to a 15 mL centrifuge tube. […] RPMI 1640 medium was slowly added with keeping the liquid interface distinct. After centrifugation at 800 g with a horizontal rotor at room temperature for 30 minutes, a clear stratification can be visible. The lymphocyte layer was aspirated, then added with 10 mL RPMI 1640 medium, and inverted for washing. The cells were collected by centrifugation at 250 g for 10 min at room temperature, and the red blood cells were lysed. After completing lysis of red blood cells, the supernatant was poured, and the cells were resuspended in culture medium and counted.
Addition of stimulant and culture of lymphocyte: RPMI-1640 medium containing 10% fetal bovine serum was used to activate the pre-coated plate. After standing at room temperature for at least 30 min, the medium was removed, and a cell suspension at adjusted concentration was added ([…]). The medium used to resuspend the cells was used as a background negative control. 10 μL positive stimulant working solution (PMA+Ionomycin (dissolved in DPBS) was added to a positive control well; […] medium used to resuspend the cells was added to a negative control well; 10 µL/well of a peptide library diluted with RPMI 1640 was added to experimental wells. After all samples and the stimulant were added, the plate was covered, incubated in an incubator with 5% CO2 at 37° C. for 16-24 h.
Elispot detection after culture: The cells and the culture medium in the wells were dumped, and the wells were lysed with 200 μL/well of ice-cold deionized water at 4° C. for 10 min. The liquid in the wells were shaken out, and the wells were washed five times with PBS buffer. The wells were incubated with 100 μL/well of 1 μg/ml detection antibody for 2 h at room temperature; and after washing the plate 5 times with PBS, the wells were incubated with 100 μL/well of 1000-fold diluted enzyme labeled avidin (Streptavidin-HRP) for 1 h at room temperature. […]

## CCCCCCC(CCCCCC)OC(=O)CCCCCCCCC(CCCCCCCCC(=O)OC(CCCCCC)CCCCCC)OC(=O)N(CCCN(C)C)CC(=O)OCC [Compound 268]
[1]
  Encapsulation efficiency: 92.22%
[2]; 75 μL IV, 6 hours after injection, IVIS, liver
  Liver (fluorescence expression intensity): 2.11E+07
[2]; 75 μL IV, 6 hours after injection, IVIS, spleen
  Spleen (fluorescence expression intensity): 8.01E+06
[2]; 75 μL tail vein injection (IV), 6 hours after injection, IVIS
  Total flux (fluorescence expression intensity): 1.23E+08
[2]; IV, 6 hours after injection
  (Spleen/Total Flux) * 100%: 6.51%
[2]; IV, relative to amino lipid compound 118
  Multiple of spleen delivery/total delivery to amino lipid compound 118: 19.15
[3]; 75 μL IV, 6 hours after injection, IVIS, lymph nodes
  Expression intensity (lymph nodes): 1.78E+06
[3]; IV, statement on Table 6
  Delivery effect on lymph nodes compared to SM102: better delivery effect on lymph nodes
[4]
  Cellular immunity effect (IFN-γ Elispot) compared to ALC0315: better cellular immunity effect
